Literature values in patent US11622994B2, “Therapy for vitiligo” (Clinuvel Pharmaceuticals Limited, priority 2008, dated 2023).

Columns and labels:
[1] = test system: frog skin; settings: frog skin bioassay; versus native alpha-MSH
[2] = test system: human volunteers
[3] = test system: cultured human keratinocytes; settings: versus native alpha-MSH

Nle^4-D-Phe^7-alpha-MSH
potency relative to the native hormone at inducing pigmentation [1]: 10 to 1,000 fold
melanin synthesis [2]: can induce melanin synthesis
potency relative to the native hormone at inducing pigmentation [3]: 10 to 1,000 fold
